Data from the NIST ThermoML archive (doi:10.1021/acs.jced.8b00165).
Numbers after ± are expanded uncertainties.

Conditions: Crystal; DTA

SMILES: CNC(=O)c1cc(Oc2ccc(N)cc2)ccn1 [4-(4-aminophenoxy)-N-methylpyridine-2-carboxamide]
- Normal melting temperature: 117.00 ± 1.1 °C
